Measured values: ChEMBL document CHEMBL5723588, “Data for DCP probe JNJ-3738” (2024)
pIC50: −log10 of the molar value. The source made the active and inactive calls. No cut-off for these calls is given here.

Key:
[1] = target: Cyclin-dependent kinase 7 (Homo sapiens, UniProt P50613, C312S); experiment: (§1) In vitro pharmacodynamics: p-RNA pol II Ser-5 (CDK7 C312S) ( QuantiGene Plex Gene Expression Assay: downregulation at the messenger level of superenhancer driven genes. The level of phosphorylation of Serine 5 on RNA pol II Vs totalRNA pol II is determined. The level of p-RNA pol II Ser-5 detected and stained with primary (a specific rabbit Phospho-Rpb1 CTD (Ser5) antibody) and secondary antibodies (a goat anti rabbit Alexa Fluor 488 conjugated secondary antibody) after 3 hrs incubation with probe.); format: functional
[2] = target: T1, Cyclin-dependent kinase 7 (Homo sapiens, UniProt P50613); experiment: as §1, with “(wtCDK7)” for “(CDK7 C312S)”; format: functional
T1 sequence (P50613 whole entry): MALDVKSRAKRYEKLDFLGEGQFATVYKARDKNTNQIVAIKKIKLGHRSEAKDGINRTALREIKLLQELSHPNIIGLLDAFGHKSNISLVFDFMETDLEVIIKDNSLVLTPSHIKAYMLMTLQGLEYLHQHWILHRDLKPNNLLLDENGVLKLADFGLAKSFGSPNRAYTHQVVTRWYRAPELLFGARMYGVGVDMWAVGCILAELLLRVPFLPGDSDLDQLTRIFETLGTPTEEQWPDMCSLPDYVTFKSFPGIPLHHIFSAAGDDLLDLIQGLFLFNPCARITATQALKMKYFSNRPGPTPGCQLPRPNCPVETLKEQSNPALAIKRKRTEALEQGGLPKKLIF

[3] = target: T1, Cyclin-dependent kinase 7; experiment: Fluorescent end-point assay ( KM ATP app ~30 µM); format: functional
[4] = target: Cyclin-dependent kinase 16 (Homo sapiens) (UniProt Q00536); experiment: Inhibition of CDK16 at 1.0 µM in the ActivX; settings: Compound concentration 1.0 uM
Sequence of Cyclin-dependent kinase 16 (Homo sapiens) (Q00536 whole entry): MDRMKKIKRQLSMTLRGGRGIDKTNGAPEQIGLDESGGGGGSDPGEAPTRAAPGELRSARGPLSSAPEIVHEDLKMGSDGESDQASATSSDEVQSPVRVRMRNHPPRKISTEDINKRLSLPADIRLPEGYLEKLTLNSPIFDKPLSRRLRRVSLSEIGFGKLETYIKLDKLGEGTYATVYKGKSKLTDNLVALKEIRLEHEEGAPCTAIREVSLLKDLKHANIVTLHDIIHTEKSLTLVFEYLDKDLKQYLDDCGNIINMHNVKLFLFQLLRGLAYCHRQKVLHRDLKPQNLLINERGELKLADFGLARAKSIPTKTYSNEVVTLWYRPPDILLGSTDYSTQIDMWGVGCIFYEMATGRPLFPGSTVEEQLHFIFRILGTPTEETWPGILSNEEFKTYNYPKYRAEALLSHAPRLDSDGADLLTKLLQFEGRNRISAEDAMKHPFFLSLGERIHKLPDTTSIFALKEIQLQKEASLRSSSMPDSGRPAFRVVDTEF

[5] = target: Cyclin-dependent kinase 20 (Homo sapiens) (UniProt Q8IZL9); experiment: Inhibition of CDK20 at 1.0 µM in the ActivX; settings: Compound concentration 1.0 uM
[6] = target: Cyclin-dependent kinase 5 (Homo sapiens) (UniProt Q00535); experiment: % inhibition of CDK5 in the DiscoverX Kinase panel at 1.0 µM; settings: Compound concentration 1.0 uM
Sequence of Cyclin-dependent kinase 5 (Homo sapiens) (Q00535 whole entry, looked up): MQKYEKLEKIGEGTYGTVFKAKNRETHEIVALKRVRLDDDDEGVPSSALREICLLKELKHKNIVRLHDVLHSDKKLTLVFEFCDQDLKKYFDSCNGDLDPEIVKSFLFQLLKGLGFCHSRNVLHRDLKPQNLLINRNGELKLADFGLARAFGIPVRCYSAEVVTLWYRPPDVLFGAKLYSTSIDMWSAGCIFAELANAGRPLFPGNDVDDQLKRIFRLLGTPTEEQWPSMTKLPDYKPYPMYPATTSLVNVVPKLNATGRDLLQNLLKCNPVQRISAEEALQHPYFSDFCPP

[7] = target: T2, Cyclin-dependent kinase 9 (Homo sapiens, UniProt P50750); experiment: % inhibition of CDK9 in the DiscoverX Kinase panel at 1.0 µM
T2 sequence (P50750 whole entry): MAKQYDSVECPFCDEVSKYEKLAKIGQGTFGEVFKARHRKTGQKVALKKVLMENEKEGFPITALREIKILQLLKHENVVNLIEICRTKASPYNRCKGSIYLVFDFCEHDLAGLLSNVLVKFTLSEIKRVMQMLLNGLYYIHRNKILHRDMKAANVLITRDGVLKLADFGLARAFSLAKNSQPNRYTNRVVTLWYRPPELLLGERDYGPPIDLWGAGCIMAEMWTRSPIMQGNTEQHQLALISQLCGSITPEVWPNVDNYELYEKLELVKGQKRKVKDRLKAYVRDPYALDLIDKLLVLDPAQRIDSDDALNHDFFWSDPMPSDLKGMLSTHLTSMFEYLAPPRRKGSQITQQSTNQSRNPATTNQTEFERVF

[8] = target: Cyclin-dependent kinase 11B (Homo sapiens) (UniProt P21127); experiment: % inhibition of CDK11b in the DiscoverX Kinase panel at 1.0 µM; settings: Compound concentration 1.0 uM
[9] = target: T1, Cyclin-dependent kinase 7; experiment: % inhibition of CDK7 in the DiscoverX Kinase panel at 1.0 µM
[10] = target: T3, CDK7/Cyclin H/MNAT1 (Homo sapiens) (UniProt P51946+P50613+P51948); experiment: (§2) Biochemical CDK7 assay (kinact/KIapp) ( CDK7 catalyzed, ATP-dependent, phosphorylation of a peptide substrate derived from RNA Pol II (CDK7/9-tide). Coupled via lactate dehydrogenase (LDH) and pyruvate kinase (PK) to lactate and NAD+ production, with concomitant depletion of NADH. Continuous coupled assay measures CDK7 catalytic activity through the diminished absorbance intensity at 340 nm that corresponds with NADH depletion.); format: functional
[11] = target: T4, Cyclin-dependent kinase 11A/B (Homo sapiens) (UniProt Q9UQ88+P21127); experiment: % inhibition of CDK11 in the DiscoverX Kinase panel at 1.0 µM; format: protein assay; settings: Compound concentration 1.0 uM
[12] = target: Cyclin-dependent kinase 6 (Homo sapiens) (UniProt Q00534); experiment: Inhibition of CDK6 at 1.0 µM in the ActivX; settings: Compound concentration 1.0 uM
[13] = target: Cyclin-dependent kinase 13 (Homo sapiens) (UniProt Q14004); experiment: Inhibition of CDK13 at 1.0 µM in the ActivX; settings: Compound concentration 1.0 uM
Sequence of Cyclin-dependent kinase 13 (Homo sapiens) (Q14004 whole entry, looked up): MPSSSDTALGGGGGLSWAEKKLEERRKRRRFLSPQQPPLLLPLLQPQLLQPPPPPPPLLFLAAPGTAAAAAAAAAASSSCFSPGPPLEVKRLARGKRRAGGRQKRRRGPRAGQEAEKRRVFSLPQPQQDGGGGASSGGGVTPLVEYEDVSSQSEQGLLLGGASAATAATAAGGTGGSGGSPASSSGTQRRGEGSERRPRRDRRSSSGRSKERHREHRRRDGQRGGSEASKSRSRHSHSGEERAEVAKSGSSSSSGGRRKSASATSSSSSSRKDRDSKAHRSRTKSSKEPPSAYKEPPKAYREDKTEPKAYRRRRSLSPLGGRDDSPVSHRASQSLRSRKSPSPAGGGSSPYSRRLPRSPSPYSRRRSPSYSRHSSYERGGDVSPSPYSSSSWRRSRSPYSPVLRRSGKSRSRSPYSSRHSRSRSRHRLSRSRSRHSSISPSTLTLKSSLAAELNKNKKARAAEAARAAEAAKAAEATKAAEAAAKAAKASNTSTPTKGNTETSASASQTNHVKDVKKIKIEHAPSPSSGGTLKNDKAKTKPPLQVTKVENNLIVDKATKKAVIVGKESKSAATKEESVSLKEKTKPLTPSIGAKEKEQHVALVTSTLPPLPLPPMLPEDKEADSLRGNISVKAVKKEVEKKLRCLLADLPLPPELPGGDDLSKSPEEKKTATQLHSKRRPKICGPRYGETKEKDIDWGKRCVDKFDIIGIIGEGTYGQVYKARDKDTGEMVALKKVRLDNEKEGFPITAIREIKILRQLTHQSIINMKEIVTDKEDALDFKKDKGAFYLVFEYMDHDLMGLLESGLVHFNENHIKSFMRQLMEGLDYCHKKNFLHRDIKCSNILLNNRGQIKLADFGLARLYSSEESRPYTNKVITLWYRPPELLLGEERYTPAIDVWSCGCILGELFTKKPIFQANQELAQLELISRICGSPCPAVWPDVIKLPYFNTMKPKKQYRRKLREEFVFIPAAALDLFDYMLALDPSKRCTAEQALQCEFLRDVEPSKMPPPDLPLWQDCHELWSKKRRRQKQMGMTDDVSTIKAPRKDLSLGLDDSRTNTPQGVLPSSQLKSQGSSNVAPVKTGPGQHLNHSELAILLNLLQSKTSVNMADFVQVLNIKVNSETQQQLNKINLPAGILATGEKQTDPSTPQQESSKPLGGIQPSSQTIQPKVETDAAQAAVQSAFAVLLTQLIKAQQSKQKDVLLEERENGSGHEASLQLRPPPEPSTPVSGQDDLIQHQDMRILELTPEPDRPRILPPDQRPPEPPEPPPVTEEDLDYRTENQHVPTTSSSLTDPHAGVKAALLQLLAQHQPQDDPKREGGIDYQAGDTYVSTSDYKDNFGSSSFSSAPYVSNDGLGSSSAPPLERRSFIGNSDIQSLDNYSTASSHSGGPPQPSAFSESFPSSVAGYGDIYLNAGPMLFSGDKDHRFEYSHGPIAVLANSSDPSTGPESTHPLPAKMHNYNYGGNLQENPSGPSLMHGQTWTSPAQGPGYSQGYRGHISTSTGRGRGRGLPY

[14] = target: Cyclin-dependent kinase 2 (Homo sapiens) (UniProt P24941); experiment: % inhibition of CDK2 in the DiscoverX Kinase panel at 1.0 µM; settings: Compound concentration 1.0 uM
[15] = target: T4, Cyclin-dependent kinase 11A/B (Homo sapiens); experiment: Inhibition of CDK11 at 1.0 µM in the ActivX; format: protein assay; settings: Compound concentration 1.0 uM
[16] = target: Cyclin-dependent kinase 18 (Homo sapiens) (UniProt Q07002); experiment: Inhibition of CDK18 at 1.0 µM in the ActivX; settings: Compound concentration 1.0 uM
[17] = target: Serine/threonine-protein kinase 16 (Homo sapiens) (UniProt O75716); experiment: Inhibition of MPSK1 at 1.0 µM in the ActivX; settings: Compound concentration 1.0 uM
[18] = target: Cyclin-dependent kinase 16 (Homo sapiens) (UniProt Q00536); experiment: % inhibition of CDK16 in the DiscoverX Kinase panel at 1.0 µM; settings: Compound concentration 1.0 uM
[19] = target: Cyclin-dependent kinase 8 (Homo sapiens) (UniProt P49336); experiment: Inhibition of CDK8 at 1.0 µM in the ActivX; settings: Compound concentration 1.0 uM
Sequence of Cyclin-dependent kinase 8 (Homo sapiens) (P49336 whole entry): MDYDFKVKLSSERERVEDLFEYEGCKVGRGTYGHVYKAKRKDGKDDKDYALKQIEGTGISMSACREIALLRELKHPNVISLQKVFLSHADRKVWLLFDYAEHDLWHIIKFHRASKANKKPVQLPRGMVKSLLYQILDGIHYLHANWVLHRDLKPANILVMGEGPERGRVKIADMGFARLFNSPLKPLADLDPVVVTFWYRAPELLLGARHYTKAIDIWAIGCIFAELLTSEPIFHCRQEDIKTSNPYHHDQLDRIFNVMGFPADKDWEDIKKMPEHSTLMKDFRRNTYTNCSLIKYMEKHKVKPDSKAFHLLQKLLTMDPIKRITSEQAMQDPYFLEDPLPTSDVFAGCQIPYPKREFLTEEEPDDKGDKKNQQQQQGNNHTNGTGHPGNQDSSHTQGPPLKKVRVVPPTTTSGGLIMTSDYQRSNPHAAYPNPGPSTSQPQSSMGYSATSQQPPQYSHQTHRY

[20] = target: Cyclin-dependent kinase 4 (Homo sapiens) (UniProt P11802); experiment: % inhibition of CDK4 in the DiscoverX Kinase panel at 1.0 µM; settings: Compound concentration 1.0 uM
Sequence of Cyclin-dependent kinase 4 (Homo sapiens) (P11802 whole entry): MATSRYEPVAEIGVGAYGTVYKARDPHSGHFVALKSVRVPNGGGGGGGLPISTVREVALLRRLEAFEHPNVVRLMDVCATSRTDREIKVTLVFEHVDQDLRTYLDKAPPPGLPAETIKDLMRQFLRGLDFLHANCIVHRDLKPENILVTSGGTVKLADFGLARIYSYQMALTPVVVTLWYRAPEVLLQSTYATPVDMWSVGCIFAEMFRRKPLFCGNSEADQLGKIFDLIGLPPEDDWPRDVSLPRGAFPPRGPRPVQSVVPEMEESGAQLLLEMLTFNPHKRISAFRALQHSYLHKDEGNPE

[21] = target: Cyclin-dependent kinase 3 (Homo sapiens) (UniProt Q00526); experiment: % inhibition of CDK3 in the DiscoverX Kinase panel at 1.0 µM; settings: Compound concentration 1.0 uM
[22] = target: Cyclin-dependent kinase 18 (Homo sapiens) (UniProt Q07002); experiment: % inhibition of CDK18 in the DiscoverX Kinase panel at 1.0 µM; settings: Compound concentration 1.0 uM
[23] = target: Cyclin-dependent kinase 10 (Homo sapiens) (UniProt Q15131); experiment: Inhibition of CDK10 at 1.0 µM in the ActivX; settings: Compound concentration 1.0 uM
[24] = target: Cyclin-dependent kinase 17 (Homo sapiens) (UniProt Q00537); experiment: Inhibition of CDK17 at 1.0 µM in the ActivX; settings: Compound concentration 1.0 uM
Sequence of Cyclin-dependent kinase 17 (Homo sapiens) (Q00537 whole entry, looked up): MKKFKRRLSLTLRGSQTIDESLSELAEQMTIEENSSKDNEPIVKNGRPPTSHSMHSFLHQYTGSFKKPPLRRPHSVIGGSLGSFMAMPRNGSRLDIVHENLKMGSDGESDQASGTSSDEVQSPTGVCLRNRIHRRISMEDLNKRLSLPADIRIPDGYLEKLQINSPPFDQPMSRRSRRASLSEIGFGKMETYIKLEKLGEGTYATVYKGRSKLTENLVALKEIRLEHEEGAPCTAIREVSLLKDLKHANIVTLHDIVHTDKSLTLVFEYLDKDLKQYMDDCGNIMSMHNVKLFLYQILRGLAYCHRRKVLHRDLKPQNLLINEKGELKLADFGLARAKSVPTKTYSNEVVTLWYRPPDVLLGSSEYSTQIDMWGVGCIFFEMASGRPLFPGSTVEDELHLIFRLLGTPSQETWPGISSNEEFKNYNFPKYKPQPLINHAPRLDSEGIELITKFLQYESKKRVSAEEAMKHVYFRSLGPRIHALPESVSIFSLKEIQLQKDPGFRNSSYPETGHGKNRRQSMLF

[25] = target: Cyclin-dependent kinase 2 (Homo sapiens) (UniProt P24941); experiment: Inhibition of CDK2 at 1.0 µM in the ActivX; settings: Compound concentration 1.0 uM
[26] = target: Cyclin-dependent kinase 1 (Homo sapiens) (UniProt P06493); experiment: Inhibition of CDK1 at 1.0 µM in the ActivX; settings: Compound concentration 1.0 uM
[27] = target: Calcium/calmodulin-dependent protein kinase kinase 2 (Homo sapiens) (UniProt Q96RR4); experiment: Inhibition of CAMKK2 at 1.0 µM in the ActivX; settings: Compound concentration 1.0 uM
[28] = target: Cyclin-dependent kinase 13 (Homo sapiens) (UniProt Q14004); experiment: % inhibition of CDK13 in the DiscoverX Kinase panel at 1.0 µM; settings: Compound concentration 1.0 uM
[29] = target: Cyclin-dependent kinase 17 (Homo sapiens) (UniProt Q00537); experiment: % inhibition of CDK17 in the DiscoverX Kinase panel at 1.0 µM; settings: Compound concentration 1.0 uM
[30] = target: Cyclin-dependent kinase 8 (Homo sapiens) (UniProt P49336); experiment: % inhibition of CDK8 in the DiscoverX Kinase panel at 1.0 µM; settings: Compound concentration 1.0 uM
[31] = target: Cyclin-dependent kinase 5 (Homo sapiens) (UniProt Q00535); experiment: Inhibition of CDK5 at 1.0 µM in the ActivX; settings: Compound concentration 1.0 uM
[32] = target: Cyclin-dependent kinase 14 (Homo sapiens) (UniProt O94921); experiment: % inhibition of CDK14 in the DiscoverX Kinase panel at 1.0 µM; settings: Compound concentration 1.0 uM
[33] = target: Cyclin-dependent kinase 12 (Homo sapiens) (UniProt Q9NYV4); experiment: Inhibition of CDK12 at 1.0 µM in the ActivX; settings: Compound concentration 1.0 uM
[34] = target: Cyclin-dependent kinase 14 (Homo sapiens) (UniProt O94921); experiment: Inhibition of CDK14 at 1.0 µM in the ActivX; settings: Compound concentration 1.0 uM
[35] = target: Cyclin-dependent kinase 15 (Homo sapiens) (UniProt Q96Q40); experiment: % inhibition of CDK15 in the DiscoverX Kinase panel at 1.0 µM; settings: Compound concentration 1.0 uM
Sequence of Cyclin-dependent kinase 15 (Homo sapiens) (Q96Q40 whole entry): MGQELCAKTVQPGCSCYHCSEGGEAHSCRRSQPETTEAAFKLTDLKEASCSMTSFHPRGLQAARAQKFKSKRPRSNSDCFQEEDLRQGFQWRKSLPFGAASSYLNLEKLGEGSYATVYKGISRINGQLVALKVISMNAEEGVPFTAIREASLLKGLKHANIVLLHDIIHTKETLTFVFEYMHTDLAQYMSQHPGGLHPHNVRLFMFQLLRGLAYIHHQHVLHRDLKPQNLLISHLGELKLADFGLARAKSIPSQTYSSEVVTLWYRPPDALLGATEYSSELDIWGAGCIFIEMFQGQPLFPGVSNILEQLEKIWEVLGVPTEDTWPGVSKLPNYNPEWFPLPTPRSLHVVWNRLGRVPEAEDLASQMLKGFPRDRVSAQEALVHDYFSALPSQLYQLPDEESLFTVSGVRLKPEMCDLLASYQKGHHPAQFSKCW

[36] = target: Cyclin-dependent kinase 15 (Homo sapiens) (UniProt Q96Q40); experiment: Inhibition of CDK15 at 1.0 µM in the ActivX; settings: Compound concentration 1.0 uM
[37] = target: T1, Cyclin-dependent kinase 7; experiment: Inhibition of CDK7 at 1.0 µM in the ActivX; settings: Compound concentration 1.0 uM
[38] = target: T2, Cyclin-dependent kinase 9; experiment: Inhibition of CDK9 at 1.0 µM in the ActivX; settings: Compound concentration 1.0 uM
[39] = target: Cyclin-dependent kinase 4 (Homo sapiens) (UniProt P11802); experiment: Inhibition of CDK4 at 1.0 µM in the ActivX; settings: Compound concentration 1.0 uM
[40] = target: Cyclin-dependent kinase 11B (Homo sapiens) (UniProt P21127); experiment: Inhibition of CDK11b at 1.0 µM in the ActivX; settings: Compound concentration 1.0 uM
[41] = target: T3, CDK7/Cyclin H/MNAT1 (Homo sapiens); experiment: as §2, with “(KIapp)” for “(kinact/KIapp)”; format: functional

CC(=O)N1CC(N2CCC(c3cc(C)c4c(c3)Nc3ncnc(N5CCS(=O)(=O)CC5)c3[C@@H](C)O4)CC2)C1
IC50 [1]: > 10 µM (not active) | IC50 [2]: > 10 µM (not active) | IC50 [3]: ~200 nM (not active)

CC#CC(=O)N1CC(N2CCC(c3cc(C)c4c(c3)Nc3ncnc(N5CCS(=O)(=O)CC5)c3[C@@H](C)O4)CC2)C1
inhibition [4]: 1% | inhibition [5]: 5% | inhibition [6]: 5% | pIC50 [7]: 6.03 | inhibition ([7]; Compound concentration 1.0 uM): 36% | inhibition [8]: 0% | pIC50 [9]: 8.42 | inhibition ([9]; Compound concentration 1.0 uM): 99% | kinact/KIapp [10]: 2600 M⁻¹ s⁻¹ | inhibition [11]: 11% | inhibition [12]: 0% | inhibition [13]: 13% | IC50 [1]: > 10 µM (not active) | inhibition [14]: 10% | inhibition [15]: 7% | inhibition [16]: 19% | inhibition [17]: 65% | inhibition [18]: 5% | inhibition [19]: 7% | inhibition [20]: 10% | inhibition [21]: 14% | inhibition [22]: 25% | inhibition [23]: 3% | IC50 [2]: 0.058 µM (active) | inhibition [24]: 17% | inhibition [25]: 6% | inhibition [26]: 11% | inhibition [27]: 70% | inhibition [28]: 12% | inhibition [29]: 2% | inhibition [30]: > 2% | inhibition [31]: 2% | inhibition [32]: 5% | inhibition [33]: 11% | inhibition [34]: 11% | inhibition [35]: 21% | inhibition [36]: 15% | inhibition [37]: 95% | inhibition [38]: 45% | inhibition [39]: 0% | inhibition [40]: 5% | KIapp [41]: 31 nM
